Test system: Prolin- und Lysinhydroxylase
Experiment: CCl4-induced liver injury (fibrosis) in rats: collagen markers after treatment with the compound
Assay type: in vivo, Ratten
Details: rats given CCl4, then compound, Dosierung 2 x 25 mg
Text: Die Aktivität der Fibrogenase kann durch radioimmunologische Bestimmung des N-terminalen Propeptids des Kollagens Typ III oder der N- bzw. C-terminalen Quervernetzungsdomäne des Kollagens Typ IV (7s-Kollagen bzw. Typ-IV-Kollagen-NC₁) im Serum bestimmt werden.
Zu diesem Zweck wurden die Hydroxyprolin-, Prokollagen-III-Peptid-, 7s-Kollagen- und Typ-IV-Kollagen-NC₁-Konzentrationen in der Leber von • a) unbehandelten Ratten (Kontrolle) • b) Ratten, denen Tetrachlorkohlenstoff verabreicht wurde (CCl₄-Kontrolle) • c) Ratten, denen zunächst CCl₄ und anschließend eine erfindungsgemäße Verbindung verabreicht wurde gemessen (diese Testmethode wird beschrieben von Rouiller, C., experimental toxic injury of the liver; in The Liver, C. Rouiller, Vol. 2, S. 335-476, New York, Academic Press, 1964).
Die pharmakologische Wirksamkeit der erfindungsgemäßen Substanzen wurde in einer Versuchsreihe (s. Tabelle 1) untersucht. Dabei zeigte sich eine deutliche Hemmung der Prolin- und Lysinhydroxylase.

COC(=O)C(C)(C)COC(=O)c1ccc(C(=O)OCC(C)(C)C(=O)OC)nc1 [compound 4, Pyridin-2,5-dicarbonsäure-bis(2-methoxycarbonyl-2,2-dimethylethyl)ester]
Hydroxy-prolin (CCl4-Kontrolle 0.773, Kontrolle 0.289): 0.482 µg/mg Leber | Prokollagen-III-Peptid (CCl4-Kontrolle 73.9, Kontrolle 11.1): 37.2 ng/mL | Typ-IV-Kollagen-NC1 (CCl4-Kontrolle 168.4, Kontrolle 23.5): 100.8 ng/mL | 7s-Kollagen (CCl4-Kontrolle 308.7, Kontrolle 22.8): 121.4 ng/mL

Source: patent EP0278452A2, “2,4- and 2,5-Pyridine-dicarboxylic-acid derivatives, process for their preparation, their use and medicines based on these compounds” (HOECHST AKTIENGESELLSCHAFT, priority 1987, dated 1988)
